These results are taken from US20230192686A1, “1H-PYRROLO[2,3-B]PYRIDINES AND PREPARATION AND USES THEREOF” (BioSplice Therapeutics, Inc., priority 2021, published 2023).

Structures are written as SMILES.

This experiment deals with recombinant DYRK1A kinase (Homo sapiens, UniProt Q13627). The experiment is described as follows: DYRK1A kinase assay (Ser/Thr 18 peptide Z-lyte FRET). It counts as biochemical. The conditions noted are these: DYRK1A kinase activity; 15 μM ATP, 4 μM Ser/Thr peptide 18, one hour at room temperature. The protocol:
Representative compounds were screened using the assay procedure for DYRK1A kinase activity as described below.
Each compound was dissolved in DMSO as a 10 mM stock and used to prepare compound source plates. Serial dilution (1:3, 11-point dose-response curves from 10 μM to 0.00016 μM) and compound transfer was performed using the ECHO 550 (Labcyte, Sunnyvale, Calif.) into 1536-well black-walled round bottom plates (Corning).
The DYRK1A kinase assay was run using the Ser/Thr 18 peptide Z-lyte assay kit according to manufacturer's instructions (Life Technologies—a Division of Thermo-Fisher). This is a non-radioactive assay using fluorescence resonance energy transfer (FRET) between coumarin and fluorescein to detect kinase activity which is represented as a ratio of coumarin emission/fluorescein emission.
Briefly, recombinant DYRK1A kinase, ATP and Ser/Thr peptide 18 were prepared in 1× Kinase buffer to final concentrations of 0.25 μg/mL, 15 μM, and 4 μM respectively. The mixture was allowed to incubate with the representative compounds for one hour at room temperature. All reactions were performed in duplicate. Unphosphorylated (“0% Control”) and phosphorylated (“100% control”) forms of Ser/Thr 18 served as control reactions. Additionally, an 11-point dose-response curve of Staurosporine (1 uM top) was run to serve as a positive compound control.
After incubation, Development Reagent A was diluted in Development Buffer then added to the reaction and allowed to further incubate for one hour at room temperature. The plate was read at Ex 400 Em 455 to detect the coumarin signal and Ex 400 Em 520 to measure the signal (EnVision Multilabel Plate Reader, PerkinElmer).
The Emission ratio (Em) was calculated as a ratio of the coumarin (C) emission signal (at 445 nm)/Fluorescein (F) emission signal (at 520 nm). The percent phosphorylation was then calculated using the following formula: [1−((Em ratio×F100%)−C100%)/((C0%−C100%)+(Em ratio×(F100%−F0%)))]. Dose-response curves were generated, and inhibitory concentration (IC50) values were calculated using non-linear regression curve fit in the Dotmatics' Studies Software (Bishops Stortford, UK).

What is called EC50 is the concentration needed to bring the measured effect to its halfway point.

For `CN1CCN(c2ccc(-c3cnc4[nH]cc(-c5ccc6ncccc6c5)c4c3)cn2)CC1` [Compound 1362, 6-(5-(6-(4-Methylpiperazin-1-yl)pyridin-3-yl)-1H-pyrrolo[2,3-b]pyridin-3-yl)quinoline], the EC50 was determined as 1 nM. Consider `CN1CCN(c2ccc(NC(=O)c3cnc4[nH]cc(-c5ccc6c(c5)C(C)(C)CNC6=O)c4c3)cn2)CC1` [Compound 813, 3-(4,4-Dimethyl-1-oxo-1,2,3,4-tetrahydroisoquinolin-6-yl)-N-(6-(4-methylpiperazin-1-yl)pyridin-3-yl)-1H-pyrrolo[2,3-b]pyridine-5-carboxamide], for which the EC50 came to 3 nM. Consider `CN1CCC(Oc2ncnc3ccc(-c4c[nH]c5nc(NC(=O)c6ccncc6)ccc45)cc23)CC1` [Compound 1913, N-(3-(4-((1-Methylpiperidin-4-yl)oxy)quinazolin-6-yl)-1H-pyrrolo [2,3-b]pyridin-6-yl)isonicotinamide], for which the EC50 amounted to 5 nM.

Regarding `CN1CCC(C(=O)Nc2ccc3c(-c4ccc5nn(C)cc5c4)c[nH]c3n2)CC1` [Compound 1831, 1-Methyl-N-(3-(2-methyl-2H-indazol-5-yl)-1H-pyrrolo[2,3-b]pyridin-6-yl)piperidine-4-carboxamide], the EC50 amounted to 1 nM. Turning to `CN1CCN(Cc2cnc3[nH]cc(-c4ccc5nccnc5c4)c3c2)CC1` [Compound 439, 6-(5-((4-Methylpiperazin-1-yl)methyl)-1H-pyrrolo[2,3-b]pyridin-3-yl) quinoxaline], the 50% effective concentration (EC50) came to 16 nM.

Take `Cc1nc2c(F)cc(-c3c[nH]c4ncc(C(=O)N5CC6CCC(C5)N6C)cc34)cc2n1C(C)C` [Compound 2044, (3-(4-Fluoro-1-isopropyl-2-methyl-1H-benzo[d]imidazol-6-yl)-1H-pyrrolo[2,3-b]pyridin-5-yl)(8-methyl-3,8-diazabicyclo[3.2.1]octan-3-yl)methanone]: the EC50 was 3 nM. Regarding `Cc1nn(C)c(C)c1-c1cnc2[nH]cc(-c3cc(F)c4nc(C)n(C(C)C)c4c3)c2c1` [Compound 1081, 4-Fluoro-1-isopropyl-2-methyl-6-(5-(1,3,5-trimethyl-1H-pyrazol-4-yl)-1H-pyrrolo[2,3-b]pyridin-3-yl)-1H-benzo[d]imidazole], the EC50 was 2 nM. The figure for `CN1CCC(NC(=O)c2ccnc3ccc(-c4c[nH]c5ncccc45)cc23)CC1` [Compound 89, N-(1-Methylpiperidin-4-yl)-6-(1H-pyrrolo[2,3-b]pyridin-3-yl) quinoline-4-carboxamide] is 1 nM; for `c1cnc2[nH]cc(-c3ccc4nccn4c3)c2c1` [Compound 12, 6-(1H-Pyrrolo[2,3-b]pyridin-3-yl)imidazo[1,2-a]pyridine] it is 3 nM.

For `CN1CCC(Oc2ncnc3ccc(-c4c[nH]c5ncccc45)cc23)CC1` [Compound 99, 4-((1-Methylpiperidin-4-yl)oxy)-6-(1H-pyrrolo[2,3-b]pyridin-3-yl) quinazoline], the EC50 is 2 nM. As to `Cn1cc(-c2ccnc3[nH]cc(-c4ccc5ncccc5c4)c23)cn1` [Compound 186, 6-(4-(1-methyl-1H-pyrazol-4-yl)-1H-pyrrolo[2,3-b]pyridin-3-yl) quinoline], the EC50 turned out to be 10 nM. Consider `Cc1nc2c(F)cc(-c3c[nH]c4ncc(C5=CCN(C)CC5)cc34)cc2n1C(C)C` [Compound 325, 4-Fluoro-1-isopropyl-2-methyl-6-(5-(1-methyl-1,2,3,6-tetrahydropyridin-4-yl)-1H-pyrrolo[2,3-b]pyridin-3-yl)-1H-benzo[d]imidazole], for which the EC50 worked out at 2 nM. As to `CN1CCN(C(=O)c2cnn3ccc(-c4c[nH]c5ncc(-c6cnn(C)c6)cc45)cc23)CC1` [Compound 1055, (5-(5-(1-Methyl-1H-pyrazol-4-yl)-1H-pyrrolo[2,3-b]pyridin-3-yl)pyrazolo[1,5-a]pyridin-3-yl)(4-methylpiperazin-1-yl)methanone], the EC50 was determined as 9 nM.

With `CN1CCC(NC(=O)c2cnn3ccc(-c4c[nH]c5ncccc45)cc23)CC1` [Compound 45, N-(1-Methylpiperidin-4-yl)-5-(1H-pyrrolo[2,3-b]pyridin-3-yl) pyrazolo[1,5-a]pyridine-3-carboxamide], the concentration giving a half-maximal response (EC50) stood at 1 nM.
